Common to all, as to test: relative viability (nuclei count vs DMSO), 5 days (fraction); higher = more cells survive
Compound in the experiment “Kobe2602 + Vorinostat”: C1=CC(=CC=C1NC(=S)NNC2=C(C=C(C=C2[N+](=O)[O-])C(F)(F)F)[N+](=O)[O-])F [Kobe2602] + O=C(CCCCCCC(=O)Nc1ccccc1)NO [Vorinostat] (partner 1 µM)
A digest of the protocol:
(§1)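 Relative viability divides the nuclei count in treated wells by that in vehicle wells. Lung cancer cell lines were seeded in 1536-well plates, dosed by pin tool the next day, and fixed and stained after 5 days in one step with final 0.05% Triton X-100, 1% formaldehyde and 1 ug/ml Hoechst. Dosing was a single drug or a fixed anchor-drug dose plus five library-drug doses (not always all listed) in √10 steps, and values are medians of duplicate plates imaged at 4×.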

Compound in the experiment “Kobe2602 + Foretinib”: C1=CC(=CC=C1NC(=S)NNC2=C(C=C(C=C2[N+](=O)[O-])C(F)(F)F)[N+](=O)[O-])F [Kobe2602] + COc1cc2c(Oc3ccc(NC(=O)C4(C(=O)Nc5ccc(F)cc5)CC4)cc3F)ccnc2cc1OCCCN1CCOCC1 [Foretinib] (partner 0.25 µM)
A digest of the protocol:
as §1

Compound in the experiment “Zosuquidar + Linsitinib”: O[C@@H](COc1cccc2ncccc12)CN1CCN([C@@H]2c3ccccc3[C@@H]3[C@H](c4ccccc42)C3(F)F)CC1 [Zosuquidar] + C[C@]1(O)C[C@@H](c2nc(-c3ccc4ccc(-c5ccccc5)nc4c3)c3c(N)nccn32)C1 [Linsitinib] (partner 1 µM)
A digest of the protocol: as §1

Compound in the experiment “Kobe2602 + Trametinib”: C1=CC(=CC=C1NC(=S)NNC2=C(C=C(C=C2[N+](=O)[O-])C(F)(F)F)[N+](=O)[O-])F [Kobe2602] + CC(=O)Nc1cccc(-n2c(=O)n(C3CC3)c(=O)c3c(Nc4ccc(I)cc4F)n(C)c(=O)c(C)c32)c1 [Trametinib] (partner 0.02 µM)
A digest of the protocol:
as §1

Regarding UMC-11, the relative viability was 0.428 with Kobe2602 + Vorinostat (first compound 0.2 µM); 0.39 with Kobe2602 + Vorinostat (first compound 0.6325 µM); 0.336 with Kobe2602 + Vorinostat (first compound 2 µM); 0.409 with Kobe2602 + Vorinostat (first compound 6.325 µM); 0.377 in the experiment with Kobe2602 + Vorinostat (first compound 20 µM); 1.03 with Kobe2602 + Foretinib (first compound 0.2 µM). Moreover, the relative viability turned out to be 0.957 with Kobe2602 + Foretinib (first compound 0.6325 µM); 0.96 with Kobe2602 + Foretinib (first compound 2 µM); 0.953 in the experiment with Kobe2602 + Foretinib (first compound 6.325 µM); 1.08 with Kobe2602 + Foretinib (first compound 20 µM); 0.976 in the experiment with Zosuquidar + Linsitinib (first compound 0.01 µM); 0.98 with Zosuquidar + Linsitinib (first compound 0.03162 µM). Besides, the relative viability with Zosuquidar + Linsitinib (first compound 0.1 µM) worked out at 1.05; with Zosuquidar + Linsitinib (first compound 0.3162 µM) it was 1.07; in the experiment with Zosuquidar + Linsitinib (first compound 1 µM), 1.07; with Kobe2602 + Trametinib (first compound 0.2 µM), 0.716; with Kobe2602 + Trametinib (first compound 0.6325 µM) it was 0.683; with Kobe2602 + Trametinib (first compound 2 µM) it was 0.751. The relative viability with Kobe2602 + Trametinib (first compound 6.325 µM) came out at 0.747; with Kobe2602 + Trametinib (first compound 20 µM) it was 0.668.

(Values after the supplement of paper PMC10307832.)
